Reference: the supplement of paper PMC10307832

Columns and labels:
Assay in all cases: relative viability (nuclei count vs DMSO), 5 days (fraction); higher = more cells survive
NCI-H1915 = system: NCI-H1915
Summary of the method: (§1)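 The day after seeding in 1536-well plates, lung cancer cell lines were treated by pin tool with a single drug, or with a fixed anchor-drug dose together with five library-drug doses (not always all listed) in √10 steps. After 5 days, a combined fix-and-stain solution (final 0.05% Triton X-100, 1% formaldehyde, 1 ug/ml Hoechst) was added. Nuclei counted on 4× images gave relative viability as treated counts over vehicle counts, reported as the median of duplicate plates.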

NCI-H647 = system: NCI-H647
Summary of the method: as §1

SK-LU-1 = system: SK-LU-1
Summary of the method: as §1

PC-3 [JPC-3] = system: PC-3 [JPC-3]
Summary of the method: as §1

NCI-H1755 = system: NCI-H1755
Summary of the method: as §1

HCC-15 = system: HCC-15
Summary of the method: as §1

NCI-H2228 = system: NCI-H2228
Summary of the method: as §1

NCI-H2347 = system: NCI-H2347
Summary of the method: as §1

SW 1573 = system: SW 1573
Summary of the method: as §1

LC-2-ad = system: LC-2-ad
Summary of the method: as §1

LXF-289 = system: LXF-289
Summary of the method: as §1

NCI-H2126 = system: NCI-H2126
Summary of the method: as §1

RERF-LC-KJ = system: RERF-LC-KJ
Summary of the method: as §1

NCI-H1734 = system: NCI-H1734
Summary of the method: as §1

NCI-H1792 = system: NCI-H1792
Summary of the method: as §1

NCI-H1975 = system: NCI-H1975
Summary of the method: as §1

HOP-62 = system: HOP-62
Summary of the method: as §1

A-427 = system: A-427
Summary of the method: as §1

HCC-78 = system: HCC-78
Summary of the method: as §1

Nc1ccn([C@@H]2O[C@H](CO)[C@@H](O)[C@@H]2O)c(=O)n1 [Cytarabine] + CC(C)C[C@H](NC(=O)[C@H](Cc1ccccc1)NC(=O)c1cnccn1)B(O)O [Bortezomib] (partner 0.002 µM)
relative viability (NCI-H1915; first compound 0.005 µM): 0.74
relative viability (NCI-H1915; first compound 0.01581 µM): 0.952
relative viability (NCI-H1915; first compound 0.05 µM): 0.8
relative viability (NCI-H1915; first compound 0.1581 µM): 0.385
relative viability (NCI-H1915; first compound 0.5 µM): 0.25
relative viability (NCI-H647; first compound 0.005 µM): 0.695
relative viability (NCI-H647; first compound 0.01581 µM): 0.423
relative viability (NCI-H647; first compound 0.05 µM): 0.513
relative viability (NCI-H647; first compound 0.1581 µM): 0.113
relative viability (NCI-H647; first compound 0.5 µM): 0.081
relative viability (SK-LU-1; first compound 0.005 µM): 0.818
relative viability (SK-LU-1; first compound 0.01581 µM): 0.69
relative viability (SK-LU-1; first compound 0.05 µM): 0.558
relative viability (SK-LU-1; first compound 0.1581 µM): 0.393
relative viability (SK-LU-1; first compound 0.5 µM): 0.296
relative viability (PC-3 [JPC-3]; first compound 0.005 µM): 0.811
relative viability (PC-3 [JPC-3]; first compound 0.01581 µM): 0.795
relative viability (PC-3 [JPC-3]; first compound 0.05 µM): 0.779
relative viability (PC-3 [JPC-3]; first compound 0.1581 µM): 0.503
relative viability (PC-3 [JPC-3]; first compound 0.5 µM): 0.511
relative viability (NCI-H1755; first compound 0.005 µM): 0.922
relative viability (NCI-H1755; first compound 0.01581 µM): 0.88
relative viability (NCI-H1755; first compound 0.05 µM): 0.663
relative viability (NCI-H1755; first compound 0.1581 µM): 0.282
relative viability (NCI-H1755; first compound 0.5 µM): 0.294
relative viability (HCC-15; first compound 0.005 µM): 0.795
relative viability (HCC-15; first compound 0.01581 µM): 1.03
relative viability (HCC-15; first compound 0.05 µM): 1.16
relative viability (HCC-15; first compound 0.1581 µM): 0.883
relative viability (HCC-15; first compound 0.5 µM): 0.668
relative viability (NCI-H2228; first compound 0.005 µM): 0.791
relative viability (NCI-H2228; first compound 0.01581 µM): 0.441
relative viability (NCI-H2228; first compound 0.05 µM): 0.437
relative viability (NCI-H2228; first compound 0.1581 µM): 0.197
relative viability (NCI-H2228; first compound 0.5 µM): 0.156
relative viability (NCI-H2347; first compound 0.005 µM): 1.22
relative viability (NCI-H2347; first compound 0.01581 µM): 0.951
relative viability (NCI-H2347; first compound 0.05 µM): 0.546
relative viability (NCI-H2347; first compound 0.1581 µM): 0.61
relative viability (NCI-H2347; first compound 0.5 µM): 0.667
relative viability (SW 1573; first compound 0.005 µM): 1.1
relative viability (SW 1573; first compound 0.01581 µM): 0.847
relative viability (SW 1573; first compound 0.05 µM): 0.675
relative viability (SW 1573; first compound 0.1581 µM): 0.461
relative viability (SW 1573; first compound 0.5 µM): 0.159
relative viability (LC-2-ad; first compound 0.005 µM): 1.01
relative viability (LC-2-ad; first compound 0.01581 µM): 0.888
relative viability (LC-2-ad; first compound 0.05 µM): 0.954
relative viability (LC-2-ad; first compound 0.1581 µM): 0.434
relative viability (LC-2-ad; first compound 0.5 µM): 0.145
relative viability (LXF-289; first compound 0.005 µM): 0.887
relative viability (LXF-289; first compound 0.01581 µM): 0.936
relative viability (LXF-289; first compound 0.05 µM): 0.901
relative viability (LXF-289; first compound 0.1581 µM): 0.474
relative viability (LXF-289; first compound 0.5 µM): 0.258
relative viability (NCI-H2126; first compound 0.005 µM): 1.08
relative viability (NCI-H2126; first compound 0.01581 µM): 1.07
relative viability (NCI-H2126; first compound 0.05 µM): 1.09
relative viability (NCI-H2126; first compound 0.1581 µM): 0.703
relative viability (NCI-H2126; first compound 0.5 µM): 0.699
relative viability (RERF-LC-KJ; first compound 0.005 µM): 1.01
relative viability (RERF-LC-KJ; first compound 0.01581 µM): 0.91
relative viability (RERF-LC-KJ; first compound 0.05 µM): 0.974
relative viability (RERF-LC-KJ; first compound 0.1581 µM): 0.68
relative viability (RERF-LC-KJ; first compound 0.5 µM): 0.472
relative viability (NCI-H1734; first compound 0.005 µM): 0.515
relative viability (NCI-H1734; first compound 0.01581 µM): 0.377
relative viability (NCI-H1734; first compound 0.05 µM): 0.347
relative viability (NCI-H1734; first compound 0.1581 µM): 0.149
relative viability (NCI-H1734; first compound 0.5 µM): 0.159
relative viability (NCI-H1792; first compound 0.005 µM): 0.925
relative viability (NCI-H1792; first compound 0.01581 µM): 0.93
relative viability (NCI-H1792; first compound 0.05 µM): 0.795
relative viability (NCI-H1792; first compound 0.1581 µM): 0.565
relative viability (NCI-H1792; first compound 0.5 µM): 0.55
relative viability (NCI-H1975; first compound 0.005 µM): 0.293
relative viability (NCI-H1975; first compound 0.01581 µM): 0.323
relative viability (NCI-H1975; first compound 0.05 µM): 0.276
relative viability (NCI-H1975; first compound 0.1581 µM): 0.23
relative viability (NCI-H1975; first compound 0.5 µM): 0.213
relative viability (HOP-62; first compound 0.005 µM): 0.58
relative viability (HOP-62; first compound 0.01581 µM): 0.291
relative viability (HOP-62; first compound 0.05 µM): 0.208
relative viability (HOP-62; first compound 0.1581 µM): 0.174
relative viability (HOP-62; first compound 0.5 µM): 0.0493
relative viability (A-427; first compound 0.005 µM): 0.752
relative viability (A-427; first compound 0.01581 µM): 0.46
relative viability (A-427; first compound 0.05 µM): 0.276
relative viability (A-427; first compound 0.1581 µM): 0.171
relative viability (A-427; first compound 0.5 µM): 0.166
relative viability (HCC-78; first compound 0.005 µM): 0.569
relative viability (HCC-78; first compound 0.01581 µM): 0.444
relative viability (HCC-78; first compound 0.05 µM): 0.445
relative viability (HCC-78; first compound 0.1581 µM): 0.378
relative viability (HCC-78; first compound 0.5 µM): 0.252
